# Experimental data: patent US4753953A, “Pyridonecarboxylic acid derivatives and antibacterial pharmaceutical compositions thereof” (priority 1985, dated 1988)
# How the values were obtained:
# [1] = test system: Bacillus subtilis PCI 219; assay: MIC, in vitro antibacterial activity (standard strains); assay type: cell-based; settings: Bacillus subtilis, PCI219
# E. coli ML 4707 [2] = assay: as above; assay type: cell-based, Escherichia coli; settings: Escherichia coli, ML4707, 10^6 cells/ml; Gram -; Table 1
# [3] = test system: Proteus vulgaris IFO 3167; assay: as above; assay type: cell-based; settings: Proteus vulgaris, IFO3167
# [4] = test system: Morganella morganii IID 602; assay: as above; assay type: cell-based; settings: Morganella morganii, IID602; 10^6 cells/ml; Gram -; read-out: MIC
# K. pneumoniae 1-220S = assay: as above; assay type: cell-based, Klebsiella pneumoniae; settings: Klebsiella pneumoniae, 1220S
# [5] = test system: Citrobacter freundii IID 976; assay: as above; assay type: cell-based; settings: Citrobacter freundii, IID976
# Shigella sonnei IID 969 = assay: as above; assay type: cell-based; settings: Shigella sonnei, IID969; 10^6 cells/ml; Gram -; read-out: MIC
# Procedure: Minimal inhibitory concentrations (MICs) were determined in accordance with the method recommended by Japan Society of Chemotherapy.
# [6] = test system: Pseudomonas aeruginosa V-1; assay: as above; assay type: cell-based; settings: Pseudomonas aeruginosa, V1
# [7] = test system: Bacteroides fragilis GM 7000; assay: as above; assay type: cell-based; settings: Bacteroides fragilis, GM7000
# B. fragilis 0558 = assay: as above; assay type: cell-based, Bacteroides fragilis; settings: Bacteroides fragilis, 0558
# B. fragilis 25285 = assay: as above; assay type: cell-based, Bacteroides fragilis; settings: Bacteroides fragilis, 25285
# B. distasonis 8503 = assay: as above; assay type: cell-based; settings: Parabacteroides distasonis, 8503
# C. ramosum = assay: as above; assay type: cell-based; settings: Thomasclavelia ramosa
# Pst. micros UPI 5464-1 = assay: as above; assay type: cell-based; settings: Parvimonas micra, UPI54641; 10^6 cells/ml; Gram +; read-out: MIC
# [8] = test system: Veillonella parvula KYA 10790; assay: as above; assay type: cell-based; settings: Veillonella parvula, KYA10790; 10^6 cells/ml; Gram -; read-out: MIC
# E. coli ML 4707 [9] = assay: Therapeutic efficacy against systemic infections in mice, E. coli ML 4707; settings: Escherichia coli, ML4707, in Mus musculus, po, 1 h
# MR S. aureus KYB 623 = assay: Therapeutic efficacy against systemic infections in mice, MR S. aureus KYB 623; settings: Staphylococcus aureus, in Mus musculus, po, 1 h
# S. pneumoniae S-4288 = assay: Therapeutic efficacy against systemic infections in mice, S. pneumoniae S-4288; settings: Streptococcus pneumoniae, S4288, in Mus musculus, po, 1 h
smiles,measurement,setting,value
"O=C(O)c1cn(C2CC2)c2cc(N3CCNCC3)c(F)cc2c1=O [CPFX, ciprofloxacin, reference compound]",MIC,[1],0.05 µg/mL
same,MIC,E. coli ML 4707 [2],≤ 0.0063 µg/mL
same,MIC,[3],≤ 0.0063 µg/mL
same,MIC,[4],0.05 µg/mL
same,MIC,K. pneumoniae 1-220S,0.05 µg/mL
same,MIC,[5],≤ 0.0063 µg/mL
same,MIC,Shigella sonnei IID 969,≤ 0.0063 µg/mL
same,MIC,[6],0.2 µg/mL
same,MIC,[7],3.13 µg/mL
same,MIC,B. fragilis 0558,3.13 µg/mL
same,MIC,B. fragilis 25285,6.25 µg/mL
same,MIC,B. distasonis 8503,6.25 µg/mL
same,MIC,C. ramosum,6.25 µg/mL
same,MIC,Pst. micros UPI 5464-1,0.2 µg/mL
same,MIC,[8],0.2 µg/mL
same,ED50,E. coli ML 4707 [9],1.4 mg/kg
same,ED50,MR S. aureus KYB 623,37 mg/kg
same,ED50,S. pneumoniae S-4288,> 100 mg/kg
